Read-outs that look alike come from different tables or passages of the source.
Experiments:
Format in all cases: cell-based
MM.1S = test: CCK-8 proliferation, MM.1S; details: Homo sapiens, MM1.S, read-out: Inhibitory activity (IC50) on tumor cell proliferation, MM1S
Method in brief: (§1)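 CCK-8 viability readout; IC50 from growth-inhibition curve fitting. Cells plated, dosed 24h later with a 10-point series, top 10µM, 5-fold steps. Culture at 37°C, 5% CO2.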

WEE1 = biological target: T1, WEE1 (Homo sapiens, UniProt P30291+Q96SW2); test: Western blot degradation of WEE1 (hPBMC); details: Table D16
T1 construct: evaluate the effects of the compounds of the present disclosure on the expression of target proteins in cells; endogenous in cells; host or cells: hPBMC
Method in brief: (§2)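 Degradation is assessed by immunoblotting lysates of treated cells. Target bands are quantified by grayscale and normalised to an internal control, so degradation rate equals 100% minus % remaining.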

IKZF1 = biological target: T2, IKZF1 (Homo sapiens, UniProt Q13422+Q96SW2); test: Western blot degradation of IKZF1 (hPBMC); details: Table D16
T2 construct: evaluate the effects of the compounds of the present disclosure on the expression of target proteins in cells; endogenous in cells; host or cells: hPBMC
Method in brief: as §2

IKZF2 = biological target: T3, IKZF2 (Homo sapiens, UniProt Q96SW2+Q9UKS7); test: Western blot degradation of IKZF2 (hPBMC); details: Table D16
T3 construct: evaluate the effects of the compounds of the present disclosure on the expression of target proteins in cells; endogenous in cells; host or cells: hPBMC
Method in brief: as §2

IKZF3 = biological target: T4, IKZF3 (Homo sapiens, UniProt Q96SW2+Q9UKT9); test: Western blot degradation of IKZF3 (hPBMC); details: Table D16
T4 construct: evaluate the effects of the compounds of the present disclosure on the expression of target proteins in cells; endogenous in cells; host or cells: hPBMC
Method in brief: as §2

CK1a = biological target: T5, CK1a (Homo sapiens, UniProt P48729+Q96SW2); test: Western blot degradation of CK1a (hPBMC); details: Table D16
T5 construct: evaluate the effects of the compounds of the present disclosure on the expression of target proteins in cells; endogenous in cells; host or cells: hPBMC
Method in brief: as §2

GSPT1 = biological target: T6, GSPT1 (Homo sapiens, UniProt P15170+Q96SW2); test: Western blot degradation of GSPT1 (hPBMC); details: Table D16
T6 construct: evaluate the effects of the compounds of the present disclosure on the expression of target proteins in cells; endogenous in cells; host or cells: hPBMC
Method in brief: as §2

MCF7 = test: CCK-8 proliferation, MCF7 (MCF-7); details: Homo sapiens, MCF7; CCK-8; read-out: Inhibitory activity (IC50) on tumor cell proliferation, MCF-7
Method in brief: as §1

T5 sequence (P48729 whole entry): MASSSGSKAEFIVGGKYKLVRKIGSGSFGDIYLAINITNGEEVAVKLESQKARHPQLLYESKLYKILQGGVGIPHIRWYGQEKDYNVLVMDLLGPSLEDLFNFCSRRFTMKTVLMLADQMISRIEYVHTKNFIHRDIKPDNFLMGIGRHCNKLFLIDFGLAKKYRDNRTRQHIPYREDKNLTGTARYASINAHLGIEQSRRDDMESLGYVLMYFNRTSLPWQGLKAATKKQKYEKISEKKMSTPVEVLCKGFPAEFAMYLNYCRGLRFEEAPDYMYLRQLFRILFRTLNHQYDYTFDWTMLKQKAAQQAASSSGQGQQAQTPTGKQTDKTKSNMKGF
T5 sequence (Q96SW2 whole entry): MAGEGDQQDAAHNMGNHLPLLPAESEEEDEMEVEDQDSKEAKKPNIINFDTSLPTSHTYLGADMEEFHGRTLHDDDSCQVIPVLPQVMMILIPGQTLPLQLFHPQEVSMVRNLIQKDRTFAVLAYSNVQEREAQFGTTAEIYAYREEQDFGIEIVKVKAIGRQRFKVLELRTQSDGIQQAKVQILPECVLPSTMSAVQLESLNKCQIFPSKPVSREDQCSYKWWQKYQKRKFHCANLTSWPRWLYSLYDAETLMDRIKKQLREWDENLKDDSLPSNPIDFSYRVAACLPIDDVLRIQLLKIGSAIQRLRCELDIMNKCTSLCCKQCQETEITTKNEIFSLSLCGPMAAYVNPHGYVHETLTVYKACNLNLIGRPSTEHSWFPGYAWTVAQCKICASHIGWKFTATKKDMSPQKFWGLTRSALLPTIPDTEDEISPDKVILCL
T5 sequence (Q16531 whole entry partner): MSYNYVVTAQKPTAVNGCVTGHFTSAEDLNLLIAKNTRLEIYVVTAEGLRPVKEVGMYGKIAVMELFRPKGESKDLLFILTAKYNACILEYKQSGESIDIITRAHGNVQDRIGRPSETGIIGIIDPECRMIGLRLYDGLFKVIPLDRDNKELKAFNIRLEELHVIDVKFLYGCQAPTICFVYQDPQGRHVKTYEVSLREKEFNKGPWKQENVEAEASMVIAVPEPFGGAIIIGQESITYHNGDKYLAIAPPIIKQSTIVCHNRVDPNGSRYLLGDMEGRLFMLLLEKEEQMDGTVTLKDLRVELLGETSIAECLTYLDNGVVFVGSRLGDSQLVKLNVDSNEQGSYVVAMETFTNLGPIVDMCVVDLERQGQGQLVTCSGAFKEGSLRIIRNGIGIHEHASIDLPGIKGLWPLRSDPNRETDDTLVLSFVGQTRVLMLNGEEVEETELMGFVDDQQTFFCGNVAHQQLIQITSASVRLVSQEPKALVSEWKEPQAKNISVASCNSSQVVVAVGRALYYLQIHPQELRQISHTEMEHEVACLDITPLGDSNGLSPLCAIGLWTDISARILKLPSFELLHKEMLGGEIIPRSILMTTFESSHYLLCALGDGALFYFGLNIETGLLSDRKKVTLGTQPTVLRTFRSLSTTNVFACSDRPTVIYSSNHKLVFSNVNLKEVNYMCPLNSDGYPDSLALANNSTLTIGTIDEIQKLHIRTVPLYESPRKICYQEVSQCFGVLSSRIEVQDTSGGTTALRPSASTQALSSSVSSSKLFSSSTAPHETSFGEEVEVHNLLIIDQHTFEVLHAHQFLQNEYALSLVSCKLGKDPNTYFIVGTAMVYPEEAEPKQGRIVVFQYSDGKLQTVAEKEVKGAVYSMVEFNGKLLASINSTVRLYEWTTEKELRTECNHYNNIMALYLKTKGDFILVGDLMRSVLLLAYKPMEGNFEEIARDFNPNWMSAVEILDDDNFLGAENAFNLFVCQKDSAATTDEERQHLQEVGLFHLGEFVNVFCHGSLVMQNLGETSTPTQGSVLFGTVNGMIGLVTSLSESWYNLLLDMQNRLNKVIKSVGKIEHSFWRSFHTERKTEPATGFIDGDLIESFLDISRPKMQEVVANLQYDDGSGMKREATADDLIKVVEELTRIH
T3 sequence (Q9UKS7 whole entry): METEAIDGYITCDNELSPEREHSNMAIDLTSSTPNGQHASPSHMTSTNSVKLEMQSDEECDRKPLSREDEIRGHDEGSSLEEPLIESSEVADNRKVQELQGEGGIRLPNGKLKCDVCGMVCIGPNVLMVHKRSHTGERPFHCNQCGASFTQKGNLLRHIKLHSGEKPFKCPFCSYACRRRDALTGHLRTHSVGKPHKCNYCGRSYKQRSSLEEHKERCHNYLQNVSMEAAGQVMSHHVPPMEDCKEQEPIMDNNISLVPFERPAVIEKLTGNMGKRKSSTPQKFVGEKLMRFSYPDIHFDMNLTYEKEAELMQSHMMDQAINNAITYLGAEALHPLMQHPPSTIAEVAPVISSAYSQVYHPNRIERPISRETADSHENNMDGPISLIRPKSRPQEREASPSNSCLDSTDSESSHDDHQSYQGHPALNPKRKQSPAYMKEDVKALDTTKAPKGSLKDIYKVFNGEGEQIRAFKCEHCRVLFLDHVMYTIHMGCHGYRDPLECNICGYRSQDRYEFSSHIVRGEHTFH
T3 sequence (Q96SW2 whole entry): as the sequence (Q96SW2 whole entry) above
T3 sequence (Q16531 whole entry partner): as the sequence (Q16531 whole entry partner) above
T6 sequence (P15170 whole entry): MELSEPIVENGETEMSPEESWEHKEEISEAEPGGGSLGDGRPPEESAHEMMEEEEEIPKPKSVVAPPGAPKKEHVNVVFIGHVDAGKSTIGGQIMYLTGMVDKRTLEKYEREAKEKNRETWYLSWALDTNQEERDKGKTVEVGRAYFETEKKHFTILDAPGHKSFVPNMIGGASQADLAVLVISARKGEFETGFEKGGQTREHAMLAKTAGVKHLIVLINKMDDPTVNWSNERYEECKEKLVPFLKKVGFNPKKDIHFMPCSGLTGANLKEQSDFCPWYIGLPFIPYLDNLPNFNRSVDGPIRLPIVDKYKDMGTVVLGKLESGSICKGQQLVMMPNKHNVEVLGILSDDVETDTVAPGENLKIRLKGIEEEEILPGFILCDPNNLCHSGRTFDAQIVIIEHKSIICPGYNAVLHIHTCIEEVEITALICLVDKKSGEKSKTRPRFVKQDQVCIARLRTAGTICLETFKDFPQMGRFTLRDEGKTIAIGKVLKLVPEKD
T6 sequence (Q96SW2 whole entry): as the sequence (Q96SW2 whole entry) above
T6 sequence (Q16531 whole entry partner): as the sequence (Q16531 whole entry partner) above
T4 sequence (Q9UKT9 whole entry): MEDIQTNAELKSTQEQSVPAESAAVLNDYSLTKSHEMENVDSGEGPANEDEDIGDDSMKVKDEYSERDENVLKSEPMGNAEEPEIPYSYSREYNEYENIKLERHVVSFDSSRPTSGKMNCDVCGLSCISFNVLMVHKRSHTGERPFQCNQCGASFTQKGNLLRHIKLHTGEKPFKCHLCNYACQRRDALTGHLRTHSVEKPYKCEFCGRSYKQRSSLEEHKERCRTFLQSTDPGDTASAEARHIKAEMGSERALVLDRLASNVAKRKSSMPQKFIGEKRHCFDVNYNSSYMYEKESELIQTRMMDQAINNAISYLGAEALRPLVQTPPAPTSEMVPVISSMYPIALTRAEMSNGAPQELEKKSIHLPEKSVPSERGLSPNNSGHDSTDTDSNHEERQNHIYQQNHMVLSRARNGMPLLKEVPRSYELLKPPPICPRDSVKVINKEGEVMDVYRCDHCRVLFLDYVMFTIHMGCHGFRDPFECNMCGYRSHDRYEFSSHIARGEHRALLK
T4 sequence (Q96SW2 whole entry): as the sequence (Q96SW2 whole entry) above
T4 sequence (Q16531 whole entry partner): as the sequence (Q16531 whole entry partner) above
T1 sequence (P30291 whole entry): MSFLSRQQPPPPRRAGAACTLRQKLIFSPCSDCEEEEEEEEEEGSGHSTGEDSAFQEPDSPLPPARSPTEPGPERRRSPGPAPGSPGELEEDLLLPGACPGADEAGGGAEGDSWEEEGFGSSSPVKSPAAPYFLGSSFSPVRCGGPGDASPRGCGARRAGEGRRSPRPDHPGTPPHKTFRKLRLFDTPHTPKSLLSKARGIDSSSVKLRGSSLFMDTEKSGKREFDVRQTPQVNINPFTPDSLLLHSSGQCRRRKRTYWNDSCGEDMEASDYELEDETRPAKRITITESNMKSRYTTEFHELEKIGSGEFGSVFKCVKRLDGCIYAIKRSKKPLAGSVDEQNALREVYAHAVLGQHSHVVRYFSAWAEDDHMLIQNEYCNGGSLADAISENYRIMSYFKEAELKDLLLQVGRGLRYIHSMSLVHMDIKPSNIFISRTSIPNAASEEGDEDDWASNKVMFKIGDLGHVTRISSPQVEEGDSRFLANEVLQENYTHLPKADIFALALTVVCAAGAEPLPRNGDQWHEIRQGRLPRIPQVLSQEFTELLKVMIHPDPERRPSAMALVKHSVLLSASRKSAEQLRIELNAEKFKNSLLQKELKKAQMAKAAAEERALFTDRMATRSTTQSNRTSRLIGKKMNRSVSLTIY
T1 sequence (Q96SW2 whole entry): as the sequence (Q96SW2 whole entry) above
T1 sequence (Q16531 whole entry partner): as the sequence (Q16531 whole entry partner) above

SMILES | IC50 (MM.1S; CCK-8, 72 hours) [nM] | IC50 (MCF7) [nM] | Degradation of substrate protein WEE1 (substrate protein remaining %) (WEE1) | Degradation of substrate protein IKZF1 (substrate protein remaining %) (IKZF1) | Degradation of substrate protein IKZF2 (substrate protein remaining %) (IKZF2) | Degradation of substrate protein IKZF3 (substrate protein remaining %) (IKZF3) | Degradation of substrate protein CKla (substrate protein remaining %) (CK1a) | Degradation of substrate protein GSPT1 (substrate protein remaining %) (GSPT1) | IC50 (MM.1S; 72 h) [nM]
O=C1CCC(c2ccc(CO)nn2)C(=O)N1 (centres unmarked) [GT-07636, 3-(6-(Hydroxymethyl)pyridazin-3-yl)piperidine-2,6-dione] | 1000 to 5000 |  | B (B is defined as substrate protein remaining % > 80%) | A (A is defined as 0% ≤ substrate protein remaining % ≤ 80%) | A (A is defined as 0% ≤ substrate protein remaining % ≤ 80%) | A (A is defined as 0% ≤ substrate protein remaining % ≤ 80%) | B (B is defined as substrate protein remaining % > 80%) | A (A is defined as 0% ≤ substrate protein remaining % ≤ 80%) | 
O=C1CCN(c2cnc(CCl)c(F)c2)C(=O)N1 [GT-07557, 1-(6-(Chloromethyl)-5-fluoropyridin-3-yl)dihydropyrimidine-2,4(1H,3H)-dione] | 1000 to 5000 |  | A (A is defined as 0% ≤ substrate protein remaining % ≤ 80%) | A (A is defined as 0% ≤ substrate protein remaining % ≤ 80%) | B (B is defined as substrate protein remaining % > 80%) | B (B is defined as substrate protein remaining % > 80%) | A (A is defined as 0% ≤ substrate protein remaining % ≤ 80%) | B (B is defined as substrate protein remaining % > 80%) | 
CC(C)(C)[Si](C)(C)OCc1ccc(NC2CCC(=O)NC2=O)cn1 (centres unmarked) [GT-07445, 3-((6-(((tert-Butyldimethylsilyl)oxy)methyl)pyridin-3-yl)amino)piperidine-2,6-dione] |  |  | A (A is defined as 0% ≤ substrate protein remaining % ≤ 80%) | A (A is defined as 0% ≤ substrate protein remaining % ≤ 80%) | B (B is defined as substrate protein remaining % > 80%) | B (B is defined as substrate protein remaining % > 80%) | A (A is defined as 0% ≤ substrate protein remaining % ≤ 80%) | A (A is defined as 0% ≤ substrate protein remaining % ≤ 80%) | 500 to 1000
NCc1cc(N2CCC(=O)NC2=O)ncc1F [GT-07369, 1-(4-(Aminomethyl)-5-fluoropyridin-2-yl)dihydropyrimidine-2,4(1H,3H)-dione] | 1000 to 5000 |  | B (B is defined as substrate protein remaining % > 80%) | B (B is defined as substrate protein remaining % > 80%) | B (B is defined as substrate protein remaining % > 80%) | B (B is defined as substrate protein remaining % > 80%) | A (A is defined as 0% ≤ substrate protein remaining % ≤ 80%) | A (A is defined as 0% ≤ substrate protein remaining % ≤ 80%) | 
CC(C)(C)[Si](C)(C)OCc1ccc(NC2CCC(=O)NC2=O)nc1 (centres unmarked) [GT-07552, 3-((5-(((tert-Butyldimethylsilyl)oxy)methyl)pyridin-2-yl)amino)piperidine-2,6-dione] |  |  | B (B is defined as substrate protein remaining % > 80%) | B (B is defined as substrate protein remaining % > 80%) | A (A is defined as 0% ≤ substrate protein remaining % ≤ 80%) | B (B is defined as substrate protein remaining % > 80%) | B (B is defined as substrate protein remaining % > 80%) | B (B is defined as substrate protein remaining % > 80%) | 1000 to 5000

Continued, in another order:

IC50 (MM.1S; CCK-8, 72 hours) [nM] | IC50 (MCF7) [nM] | SMILES | Degradation of substrate protein WEE1 (substrate protein remaining %) (WEE1) | Degradation of substrate protein IKZF1 (substrate protein remaining %) (IKZF1) | Degradation of substrate protein IKZF2 (substrate protein remaining %) (IKZF2) | Degradation of substrate protein IKZF3 (substrate protein remaining %) (IKZF3) | Degradation of substrate protein CKla (substrate protein remaining %) (CK1a) | Degradation of substrate protein GSPT1 (substrate protein remaining %) (GSPT1) | IC50 (MM.1S; 72 h) [nM]
1000 to 5000 |  | O=C1CCC(Nc2cncc(CO)c2)C(=O)N1 (centres unmarked) [GT-07448, 3-((5-(Hydroxymethyl)pyridin-3-yl)amino)piperidine-2,6-dione] | A (A is defined as 0% ≤ substrate protein remaining % ≤ 80%) | A (A is defined as 0% ≤ substrate protein remaining % ≤ 80%) | A (A is defined as 0% ≤ substrate protein remaining % ≤ 80%) | A (A is defined as 0% ≤ substrate protein remaining % ≤ 80%) | A (A is defined as 0% ≤ substrate protein remaining % ≤ 80%) | A (A is defined as 0% ≤ substrate protein remaining % ≤ 80%) | 
1000 to 5000 |  | O=Cc1ccnc(NC2CCC(=O)NC2=O)c1 (centres unmarked) [GT-07553, 2-((2,6-Dioxopiperidin-3-yl)amino)isonicotinaldehyde] | A (A is defined as 0% ≤ substrate protein remaining % ≤ 80%) | A (A is defined as 0% ≤ substrate protein remaining % ≤ 80%) | A (A is defined as 0% ≤ substrate protein remaining % ≤ 80%) | B (B is defined as substrate protein remaining % > 80%) | B (B is defined as substrate protein remaining % > 80%) | B (B is defined as substrate protein remaining % > 80%) | 
1000 to 5000 |  | O=Cc1cnc(NC2CCC(=O)NC2=O)nc1 (centres unmarked) [GT-07367, 2-((2,6-Dioxopiperidin-3-yl)amino)pyrimidine-5-carbaldehyde] | B (B is defined as substrate protein remaining % > 80%) | B (B is defined as substrate protein remaining % > 80%) | B (B is defined as substrate protein remaining % > 80%) | B (B is defined as substrate protein remaining % > 80%) | A (A is defined as 0% ≤ substrate protein remaining % ≤ 80%) | A (A is defined as 0% ≤ substrate protein remaining % ≤ 80%) | 
1000 to 5000 |  | NCc1ccnc(N2CCC(=O)NC2=O)c1 [GT-07198, 1-(4-(Aminomethyl)pyridin-2-yl)dihydropyrimidine-2,4(1H,3H)-dione] | B (B is defined as substrate protein remaining % > 80%) | B (B is defined as substrate protein remaining % > 80%) | B (B is defined as substrate protein remaining % > 80%) | A (A is defined as 0% ≤ substrate protein remaining % ≤ 80%) | B (B is defined as substrate protein remaining % > 80%) | B (B is defined as substrate protein remaining % > 80%) | 
 | 1000 to 5000 | O=C1CCC(Nc2ccc(CO)nc2)C(=O)N1 (centres unmarked) [GT-07446, 3-((6-(Hydroxymethyl)pyridin-3-yl)amino)piperidine-2,6-dione] | A (A is defined as 0% ≤ substrate protein remaining % ≤ 80%) | A (A is defined as 0% ≤ substrate protein remaining % ≤ 80%) | A (A is defined as 0% ≤ substrate protein remaining % ≤ 80%) | A (A is defined as 0% ≤ substrate protein remaining % ≤ 80%) | A (A is defined as 0% ≤ substrate protein remaining % ≤ 80%) | A (A is defined as 0% ≤ substrate protein remaining % ≤ 80%) | 
 | 1000 to 5000 | O=Cc1cncc(NC2CCC(=O)NC2=O)c1 (centres unmarked) [GT-07554, 5-((2,6-Dioxopiperidin-3-yl)amino)nicotinaldehyde] | A (A is defined as 0% ≤ substrate protein remaining % ≤ 80%) | A (A is defined as 0% ≤ substrate protein remaining % ≤ 80%) | A (A is defined as 0% ≤ substrate protein remaining % ≤ 80%) | A (A is defined as 0% ≤ substrate protein remaining % ≤ 80%) | A (A is defined as 0% ≤ substrate protein remaining % ≤ 80%) | B (B is defined as substrate protein remaining % > 80%) | 
